Reference: PubChem BioAssay (NCI)
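Growth conditions: 96-well plates. Treatment: test compound, 48 hours, 5 concentrations. Analysis: linear interpolation between bracketing concentrations; unreached endpoints set to highest concentration. GI50 is the concentration that inhibits growth by half. TGI is the concentration that stops growth completely.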

Columns and labels:
Assay in all cases: growth of human tumour cells (NCI), 48 h
MDA-MB-231 breast = test system: MDA-MB-231 breast
HOP-62 NSCLC = test system: HOP-62 NSCLC
LOX IMVI melanoma = test system: LOX IMVI melanoma
CCRF-CEM leukemia = test system: CCRF-CEM leukemia
NCI-H460 lung = test system: NCI-H460 lung
SK-MEL-2 melanoma = test system: SK-MEL-2 melanoma
SR leukemia = test system: SR leukemia
ACHN renal = test system: ACHN renal
SK-MEL-28 melanoma = test system: SK-MEL-28 melanoma
COLO 205 colon = test system: COLO 205 colon

| Structure (SMILES) | GI50 (MDA-MB-231 breast) [µM] | TGI (MDA-MB-231 breast) [µM] | GI50 (HOP-62 NSCLC) [µM] | TGI (HOP-62 NSCLC) [µM] | GI50 (LOX IMVI melanoma) [µM] | TGI (LOX IMVI melanoma) [µM] | GI50 (CCRF-CEM leukemia) [µM] | TGI (CCRF-CEM leukemia) [µM] | GI50 (NCI-H460 lung) [µM] | TGI (NCI-H460 lung) [µM] | GI50 (SK-MEL-2 melanoma) [µM] | TGI (SK-MEL-2 melanoma) [µM] | GI50 (SR leukemia) [µM] | TGI (SR leukemia) [µM] | GI50 (ACHN renal) [µM] | TGI (ACHN renal) [µM] | GI50 (SK-MEL-28 melanoma) [µM] | TGI (SK-MEL-28 melanoma) [µM] | GI50 (COLO 205 colon) [µM] | TGI (COLO 205 colon) [µM] |
| --- | --- | --- | --- | --- | --- | --- | --- | --- | --- | --- | --- | --- | --- | --- | --- | --- | --- | --- | --- | --- |
| Nc1nc2c(c3cnccc13)C(c1ccc(Cl)c(Cl)c1)Cc1cnccc1-2 (centres undefined) | 0.937 | 14.8 | 0.583 | 4.99 | 0.293 | 11 | 0.388 | 12.6 | 0.428 | 3.99 | 0.401 | 1.86 | 0.384 | > 100 | 0.807 | 4.04 | 2.85 | 19 | 0.356 | 1.09 |
| Cc1cccc(NC(=O)c2sc3nc4c(cc3c2N)C(=O)CCC4)c1 | 0.585 | > 44.5 | 0.425 | > 43.7 | 1 | > 70 | 2.26 | > 100 | 0.312 | > 39.3 | 0.266 | > 54.2 | 0.445 | > 100 | 1.48 | > 58.5 | 1.53 | > 62.3 | 0.231 |  |
| C[C@]12CC[C@H]3[C@@H](CCC4=CC(=O)CC[C@@]43C)[C@@H]1CC[C@@H]2c1csc(N)n1 | 8.82 | 28.7 | 6.56 | 23.7 | 3.38 | 15.9 | 4.49 | 49 | 3.46 | 13.8 | 14.5 | 32.7 | 2.12 | 12.6 | 6.4 | 40.6 | 10 | 26 | 3.57 | 14.2 |
| O=C1Oc2ccccc2C(=O)/C1=C1/C=C(c2ccccc2)SS1 |  | > 100 |  | > 100 |  | > 100 |  | 49.6 |  | > 100 |  | > 100 |  | 61.3 |  | > 100 |  | > 100 |  | > 100 |
| CC(Br)C(=O)NC(CO)C(=O)O (centres undefined) |  | > 100 |  | > 100 |  | > 100 |  | > 100 |  | > 100 |  | > 100 |  | > 100 |  | > 100 |  | > 100 |  | > 100 |
| O=C1/C(=C/c2ccc(Cl)c(Cl)c2)CN(C(=O)CCN2CCC(=NO)CC2)C/C1=C\c1ccc(Cl)c(Cl)c1 | 0.616 | 1.85 | 1.26 | 3.11 | 0.256 | 0.612 | 0.292 | 1.73 | 0.933 | 2.57 | 2.05 | 4.3 | 0.353 | > 100 | 0.641 | 1.62 | 1.64 | 3.07 | 0.391 | 1.54 |
| Cc1ccc2c(-c3ccnc(Nc4ccc5c(c4)OCCO5)n3)c(-c3ccc(C(F)(F)F)cc3)nn2n1 | 1.25 | > 25 | 24.8 | > 25 | 1.5 | 6.68 | 11.7 | > 25 | 5.66 | > 25 | 8.42 | > 25 | 17 | > 25 | 16.5 | > 25 | > 25 | > 25 | 3.17 | > 25 |
| COc1ccc2c(c1)C(=O)c1c-2c(Nc2ccccc2OC)nc2ccccc12 | > 100 | > 100 | > 100 | > 100 | > 100 | > 100 | > 100 | > 100 | > 100 | > 100 | > 100 | > 100 | > 100 | > 100 | 89.2 | > 100 | > 100 | > 100 | > 100 | > 100 |
| O=C(Nc1cccc(-n2cc(-c3ccncc3)c(-c3cc(O)cc(Cl)c3)n2)c1)c1ccc(N2CCOCC2)c(C(F)(F)F)c1 | 0.327 | 1.66 | 3.59 | 58.2 | 1.03 | 4.61 | 0.543 | > 100 | 0.797 | 3.48 | 2.34 | 13.2 | 0.338 | 1.83 | 1.84 | 29.3 | 0.759 | 3.27 | 17.5 | 64.5 |
| Cn1c([N+](=O)[O-])cnc1C=C1C(=O)c2ccccc2C1=O | 2.72 | 10.1 | 10.7 | 29.5 | 2.84 | 11.1 | 1.85 | 6.53 | 7.1 | 22 | 2.46 | 6.24 | 1.87 | 10.5 | 3.75 | 13.7 | 2.56 | 7.4 | 4.83 | 15.9 |
| O=C1CC(c2ccccc2)Oc2ccccc21 (centres undefined) |  | 94 |  | > 100 |  | 84.3 |  | 57.4 |  | > 100 |  | 86.7 |  | 50.6 |  | > 100 |  | > 100 |  | > 100 |
